From patent publication US12152048B2, “Nitroxoline prodrug and use thereof” (Jiangsu Yahong Meditech Co., Ltd., priority 2018, dated 2024)
Converted amounts (≈) assume the structure as drawn.

Assays:
[1] = Stability in dog liver microsome; conditions: 2 μM, 37° C., 30 minutes
[2] = Stability in monkey plasma; format: in vitro ADME
Excerpt: (§1) Experimental instruments: thermostatic shaker (SHA-B, Guohua Electric Appliance Co., Ltd.); centrifuge (5810R, Eppendorf); mass spectrometry (AP4000, Applied Biosystems, USA); liquid chromatography (LC-30AD, Shimadzu); sample injector (CTC Analytics AG System, CTC).
(§2) Test animals: plasma of human (batch number: BRH1343165), rat (batch number: RAT336728), mouse (batch number: MSE280000), dog (batch number: BGL99137) and monkey (batch number: PH-Monkey-20180821) are purchased from Shanghai Sixin Biological Technology Co., Ltd.
(§3) Experimental process: the compound of the present invention was dissolved in an organic solvent to obtain a 1 mM working solution. 3 μL of the working solution were added to 597 μL of pre-incubated human or rat plasma and mixed well. 50 μL of the solution were immediately taken out as the 0 minute sample. The remaining sample was incubated at 37° C., and 50 μL of sample were taken out at 15, 30, 60 and 120 minutes respectively. All the samples taken out were immediately processed to precipitate protein, and centrifuged to obtain a supermate for the determination of the compound concentration by LC/MS/MS.

[3] = Pharmacokinetics assay in dog (nitroxoline concentration in plasma after single intravenous or oral administration); format: in vivo, beagle dog; conditions: for absorption in beagle dogs compared with nitroxoline: conclusion in words; for AUC0-inf: nitroxoline in beagle dog plasma
Excerpt: Nitroxoline is mainly metabolized by the phase II metabolism in liver with a fast metabolism rate, so it has a short half-life in the body. The present invention modified its structure and 13 compounds of formula (I) were obtained through chemical synthesis. The change of nitroxoline concentration in dog plasma after a single intravenous or oral administration of nitroxoline and the compound of formula (I) was studied to evaluate the pharmacokinetic behavior of nitroxoline and the compound of formula (I) in dog body.
Male beagle dog (Beijing Marshall Biotechnology Co., Ltd., Certificate No.: SCXK (BJ) 2016-0001, Qualified number: 11400600001728), 3 dogs per group, weight 10 to 13 kg, 20 to 22 months old. The dogs were fasted overnight before the administration with free access to water, and fed 4 hours after the administration. The test compound was added to an EP tube, and then added with DMSO, solutol and sterilized water for injection (the volume ratio of the three was 1:2:17, v:v:v). The EP tube was subjected to ultrasound for 20 minutes to make the test compound dissolve well (compound concentration: 0.005 mmol/mL). The dose for intravenous administration was 0.01 mmol/kg, and the dose for oral administration was 0.1 mmol/kg. 0.3 ml of whole blood was collected from jugular vein before the administration (0 hour) and 0.0833, 0.25, 0.5, 1, 2, 4, 6, 8, 10 and 12 hours after the administration (sampling points can be adjusted according to the specific situation) respectively. The blood sample was placed in a centrifuge tube containing EDTA-K2 anticoagulant (Aldrich), and the centrifuge tube was left to stand in ice. The blood sample was centrifuged for 10 minutes at 1530 g within 0.5 hour to obtain all clean plasma. The plasma was placed in another clean centrifuge tube, and stored in a refrigerator at −20° C. for later use.
Solution for standard curve was formulated. 1000 μL of internal standard working solution (containing a solution of verapamil (5 ng/mL, Aldrich), glibenclamide (50 ng/mL, Aldrich) and diclofenac (50 ng/mL, Aldrich) in acetonitrile) was added to 10 μL of the solution for standard curve and sample, and the mixture was shaked by vortex for 5 minutes. The mixture was centrifuged for 10 minutes at 4° C., 3700 rpm. 60 μL of the supernatant were placed in an injection tube, and mixed with 120 μL of water. 10 μL of the solution were injected into the liquid chromatography-mass spectrometry system for determination. The pharmacokinetic parameters were calculated by the WinNonlin V 6.2 non-compartmental model.

[4] = Stability in mouse liver microsome; format: in vitro ADME; conditions: 2 μM, 37° C., 30 minutes
[5] = Stability in human plasma
[6] = Stability in rat liver microsome; conditions: 2 μM, 37° C., 30 minutes
Stability in dog plasma = format: in vitro ADME
Excerpt: as §1, §2, §3

[7] = Stability in human liver microsome; conditions: 2 μM, 37° C., 30 minutes
[8] = Determination of water solubility in phosphate buffer; format: physicochemical; conditions: for solubility at 24 h: thermodynamic from solid
Outline: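 Thermodynamic solubility: compound concentration measured by LC/MS/MS in the vacuum filtrate after 24 h shaking at room temperature of 2 mg powder in 500 μL phosphate buffer at pH 1.2, 4.5, 6.8 or 7.4.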

[9] = Stability in plasma, overall conclusion (species not stated); conditions: conclusion in words
[10] = oral administration 0.1 mmol/kg
[11] = aqueous buffer, phosphate buffer pH 4.5, room temperature
[12] = aqueous buffer, phosphate buffer pH 6.8, room temperature
[13] = aqueous buffer, phosphate buffer pH 7.4, room temperature
[14] = simulated gastric fluid, phosphate buffer pH 1.2, room temperature
[15] = intravenous administration 0.01 mmol/kg

Excerpt for Stability in rat plasma: as §1, §2, §3

Structure (SMILES)	Percentage of the compound remaining in plasma (Stability in rat plasma; 0 minute)	Percentage of the compound remaining in plasma (Stability in rat plasma; 37° C., 15 minutes)	Percentage of the compound remaining in plasma (Stability in rat plasma; 37° C., 30 minutes)	Percentage of the compound remaining in plasma (Stability in rat plasma; 37° C., 60 minutes)	Percentage of the compound remaining in plasma (Stability in rat plasma; 37° C., 120 minutes)	Percentage of the compound remaining in dog liver microsome ([1]; with coenzyme)	Percentage of the compound remaining in dog liver microsome ([1]; without coenzyme)	Percentage of the compound remaining in mouse liver microsome ([4]; with coenzyme)	Percentage of the compound remaining in mouse liver microsome ([4]; without coenzyme)	Percentage of the compound remaining in plasma ([5]; 0 minute)	Percentage of the compound remaining in plasma ([5]; 37° C., 15 minutes)	Percentage of the compound remaining in plasma ([5]; 37° C., 30 minutes)	Percentage of the compound remaining in plasma ([5]; 37° C., 60 minutes)	Percentage of the compound remaining in plasma ([5]; 37° C., 120 minutes)	Percentage of the compound remaining in rat liver microsome ([6]; with coenzyme)	Percentage of the compound remaining in rat liver microsome ([6]; without coenzyme)	Percentage of the compound remaining in plasma (Stability in dog plasma; 0 minute)	Percentage of the compound remaining in human liver microsome ([7]; with coenzyme)	Percentage of the compound remaining in human liver microsome ([7]; without coenzyme)	solubility at 24 h [8, 13]	other results
CCC(CC)C(=O)OCOc1ccc([N+](=O)[O-])c2cccnc12 [Compound 5, (5-nitroquinolin-8-yloxy)methyl 2-ethylbutanoate]	100.0%	2.2%	0.0%	0.0%	0.0%	0.19%	4.06%	0.44%	0.34%	100.0%	68.5%	39.5%	11.9%	1.6%	0.16%	1.10%	100.0%	0.15%	0.88%	13 µg/mL (≈ 40.9 µM)	Percentage of the compound remaining in plasma ([2]; 0 minute): 100.0%; Percentage of the compound remaining in plasma ([2]; 37° C., 15 minutes): 0.0%; Percentage of the compound remaining in plasma ([2]; 37° C., 30 minutes): 0.0%; Percentage of the compound remaining in plasma ([2]; 37° C., 60 minutes): 0.0%; Percentage of the compound remaining in plasma ([2]; 37° C., 120 minutes): 0.0%; absorption in beagle dogs compared with nitroxoline [3]: well absorbed; AUC0-inf [3, 10]: 1760 ng*hmL^−1; Percentage of the compound remaining in plasma (Stability in dog plasma; 37° C., 15 minutes): 75.0%; Percentage of the compound remaining in plasma (Stability in dog plasma; 37° C., 30 minutes): 50.6%; Percentage of the compound remaining in plasma (Stability in dog plasma; 37° C., 60 minutes): 27.1%; Percentage of the compound remaining in plasma (Stability in dog plasma; 37° C., 120 minutes): 12.0%; solubility at 24 h [8, 11]: 13.1 µg/mL (≈ 41.1 µM); solubility at 24 h [8, 12]: 11.1 µg/mL (≈ 34.9 µM); solubility at 24 h [8, 14]: 204 µg/mL (≈ 640 µM)
CC(C)C(=O)N1CCC[C@H]1C(=O)OCOc1ccc([N+](=O)[O-])c2cccnc12 [Compound 20, (S)-(5-nitroquinolin-8-yloxy)methyl 1-isopropionylpyrrolidine-2-carboxylate]						33.13%	53.50%	0.09%	49.07%						3.64%	46.82%		26.92%	59.42%	978 µg/mL (≈ 2530 µM)	absorption in beagle dogs compared with nitroxoline [3]: well absorbed; AUC0-inf [3, 15]: 1290 ng*hmL^−1; AUC0-inf [3, 10]: 8750 ng*hmL^−1; solubility at 24 h [8, 11]: 1050 µg/mL (≈ 2700 µM); solubility at 24 h [8, 12]: 962 µg/mL (≈ 2480 µM); water solubility compared with nitroxoline ([8]; conclusion in words): increased by several times; solubility at 24 h [8, 14]: 1010 µg/mL (≈ 2610 µM)
CCC(CC)C(=O)OC(C)Oc1ccc([N+](=O)[O-])c2cccnc12 (stereo not drawn) [Compound 51, 1-(5-nitroquinolin-8-yloxy)ethyl 2-ethylbutanoate]	100.0%	70.2%	67.8%	48.0%	35.3%	0.07%	0.28%	0.02%	0.09%	100.0%	97.2%	98.0%	94.1%	84.6%	0.08%	2.92%	100.0%	0.06%	0.25%	6.62 µg/mL (≈ 19.9 µM)	Percentage of the compound remaining in plasma ([2]; 0 minute): 100.0%; Percentage of the compound remaining in plasma ([2]; 37° C., 15 minutes): 96.4%; Percentage of the compound remaining in plasma ([2]; 37° C., 30 minutes): 87.0%; Percentage of the compound remaining in plasma ([2]; 37° C., 60 minutes): 78.1%; Percentage of the compound remaining in plasma ([2]; 37° C., 120 minutes): 69.0%; absorption in beagle dogs compared with nitroxoline [3]: well absorbed; AUC0-inf [3, 15]: 1153 ng*hmL^−1; AUC0-inf [3, 10]: 2474 ng*hmL^−1; Percentage of the compound remaining in plasma (Stability in dog plasma; 37° C., 15 minutes): 103.7%; Percentage of the compound remaining in plasma (Stability in dog plasma; 37° C., 30 minutes): 93.7%; Percentage of the compound remaining in plasma (Stability in dog plasma; 37° C., 60 minutes): 89.1%; Percentage of the compound remaining in plasma (Stability in dog plasma; 37° C., 120 minutes): 93.3%; solubility at 24 h [8, 11]: 7.07 µg/mL (≈ 21.3 µM); solubility at 24 h [8, 12]: 5.69 µg/mL (≈ 17.1 µM); solubility at 24 h [8, 14]: 91.4 µg/mL (≈ 275 µM)

The next lines start with results.

Percentage of the compound remaining in plasma (Stability in rat plasma; 0 minute)	Percentage of the compound remaining in plasma (Stability in rat plasma; 37° C., 15 minutes)	Percentage of the compound remaining in plasma (Stability in rat plasma; 37° C., 30 minutes)	Percentage of the compound remaining in plasma (Stability in rat plasma; 37° C., 60 minutes)	Percentage of the compound remaining in plasma (Stability in rat plasma; 37° C., 120 minutes)	Percentage of the compound remaining in dog liver microsome ([1]; with coenzyme)	Percentage of the compound remaining in dog liver microsome ([1]; without coenzyme)	Percentage of the compound remaining in mouse liver microsome ([4]; with coenzyme)	Percentage of the compound remaining in mouse liver microsome ([4]; without coenzyme)	Percentage of the compound remaining in plasma ([5]; 0 minute)	Percentage of the compound remaining in plasma ([5]; 37° C., 15 minutes)	Percentage of the compound remaining in plasma ([5]; 37° C., 30 minutes)	Percentage of the compound remaining in plasma ([5]; 37° C., 60 minutes)	Percentage of the compound remaining in plasma ([5]; 37° C., 120 minutes)	Percentage of the compound remaining in rat liver microsome ([6]; with coenzyme)	Percentage of the compound remaining in rat liver microsome ([6]; without coenzyme)	Percentage of the compound remaining in plasma (Stability in dog plasma; 0 minute)	Percentage of the compound remaining in human liver microsome ([7]; with coenzyme)	Percentage of the compound remaining in human liver microsome ([7]; without coenzyme)	solubility at 24 h [8, 13]	Structure (SMILES)	other results
100.0%	0.0%	0.0%	0.0%	0.0%	61.38%	70.31%	9.85%	31.90%	100.0%	108.6%	103.3%	93.4%	71.9%	10.77%	13.97%	100.0%	31.49%	29.40%	24.4 µg/mL (≈ 67.3 µM)	CCC(NC(=O)OCOc1ccc([N+](=O)[O-])c2cccnc12)C(=O)OC (stereo not drawn) [Compound 54, methyl 2-(((5-nitroquinolin-8-yloxy)methoxy)formamido)butanoate]	Percentage of the compound remaining in plasma (Stability in dog plasma; 37° C., 15 minutes): 100.3%; Percentage of the compound remaining in plasma (Stability in dog plasma; 37° C., 30 minutes): 99.2%; Percentage of the compound remaining in plasma (Stability in dog plasma; 37° C., 60 minutes): 92.4%; Percentage of the compound remaining in plasma (Stability in dog plasma; 37° C., 120 minutes): 74.7%; stability in plasma [9]: high stability
100.0%	48.9%	24.7%	5.0%	0.3%	70.73%	84.65%	2.01%	90.39%	100.0%	91.3%	94.5%	92.1%	68.7%	8.58%	52.76%	100.0%	61.24%	81.91%	15.5 µg/mL (≈ 39.7 µM)	CCC(C)C(NC(=O)OCOc1ccc([N+](=O)[O-])c2cccnc12)C(=O)OC (stereo not drawn) [Compound 55, methyl 3-methyl-2-(((5-nitroquinolin-8-yloxy)methoxy)formamido)pentanoate]	Percentage of the compound remaining in plasma (Stability in dog plasma; 37° C., 15 minutes): 99.6%; Percentage of the compound remaining in plasma (Stability in dog plasma; 37° C., 30 minutes): 97.5%; Percentage of the compound remaining in plasma (Stability in dog plasma; 37° C., 60 minutes): 83.3%; Percentage of the compound remaining in plasma (Stability in dog plasma; 37° C., 120 minutes): 70.1%; stability in plasma [9]: high stability
